Measurements reported in US20220088024A1, “METHODS FOR TREATING CANCER USING TOZADENANT” (Biotie Therapies, Inc., priority 2018, published 2022).
Values joined by “and” are separate entries in the source; they are usually repeats but may differ in a detail not shown here. Equal entries are not always repeated.

Key:
[1] = tested on: CT26 colon carcinoma tumor; experiment: Example 7: SYN-115 dose range as single agent in the CT26 tumor mouse model (tumor area, survival); assay type: in vivo, BALB/c mice; parameters: key: tumor area in mm^2 (width × length); settings: SYN-115 (5 mg/kg); Day 37
Procedure: The BALB/c mouse colon carcinoma cell line CT26 was cultured in RPMI supplemented with 10% FCS, GlutaMAX, and penicillin/streptomycin. Tumor cells are periodically verified to be Mycoplasma negative by the Victorian Infectious Diseases References Lab (Melbourne, VIC, Australia) by PCR analysis. 1×10^5 cells were resuspended in PBS and injected s.c. into BALB/c mice in a 100 μL volume. At day 7 tumors were measured and mice were randomized into distinct treatment groups to ensure that each group had tumors of similar size at the onset of treatment. Mice were treated with SYN-115 (Batch 71236AA006) at the indicated dose or vehicle control once-daily via oral gavage on days 7 to 20. To calculate a dose of SYN-115 mouse weight was estimated to be 20 g per mouse. Therefore, 100 mg/kg=2 mg per mouse in 200 μL, which is equivalent to 10 mg/ml. To make up 40 mL, 400 milligrams of SYN-115 was weighed and added into a Falcon tube, then 1 mL of Tween 80 was added and mixed into a paste and then 39 mL of 1% Methyl Cellulose was added. The solution was vortexed and then left on a rotating mixer for at least 2 hours and maintained at 4° C. Tumor measurements were taken 2-3 times per week. Tumor sizes were determined by width * length and mice were culled when tumors reached the ethical limit of 150 mm^2.

[2] = tested on: AT-3ova CD73+ tumour (mouse breast carcinoma cell line AT-3); experiment: Example 3: anti-tumor responses of SYN-115 QD or BID in the AT-3ova CD73+ tumour cell mouse model (tumor area); assay type: in vivo, C57/BL6 mice; parameters: key to Raw Tumor Measurements: tumor area, width × length in mm^2
Procedure: The C57BL/6 mouse breast carcinoma cell line AT-3 was obtained from Dr. Trina Stewart (Griffith University, Nathan, QLD, Australia. Tumor cell lines were transduced to express chicken ovalbumin peptide and CD73 as previously described (1, 2, 3). Tumor cells are periodically verified to be Mycoplasma negative by the Victorian Infectious Diseases References Lab (Melbourne, VIC, Australia) by PCR analysis. Tumor cells were grown in DMEM supplemented with 10% FCS, GlutaMAX, and penicillin/streptomycin. 5×10^5 cells were resuspended in PBS and injected s.c. into C57/BL6 mice in a 100 μL volume. At day 14 tumors were measured and mice were randomized into distinct treatment groups to ensure that each group had tumors of similar size at the onset of treatment. Mice were treated i.p. at days 14, 18, 22, and 26 with either isotype control (2A3; 200 μg/mouse) or anti-PD-1 mAb (RMP1-14, 200 μg/mouse) and where indicated SYN-115 (Batch 71236AA002) at the indicated dose or vehicle control once or twice-daily via oral gavage on days 14 to 29. To calculate a dose of SYN-115 mouse weight was estimated to be 20 g per mouse. Therefore, 100 mg/kg=2 mg per mouse in […] which is equivalent to 10 mg/ml. To make up 40 mL, 400 milligrams of SYN-115 was weighed and added into a Falcon tube, then 1 mL of Tween 80 was added and mixed into a paste and then 39 mL of 1% Methyl Cellulose was added. The solution was vortexed and then left on a rotating mixer for at least 2 hours and maintained at 4° C. Tumor measurements were taken 2-3 times per week. Tumor sizes were determined by width * length and mice were culled when tumors reached the ethical limit of 150 mm^2.

In the case of `COc1ccc(N2CCOCC2)c2sc(NC(=O)N3CCC(C)(O)CC3)nc12` [SYN-115, 4-hydroxy-4-methyl-piperidine-1-carboxylic acid (4-methoxy-7-morpholin-4-yl-benzothiazol-2-yl)-amide], the “Raw Tumor Measurements” value [1] is reported as 161.59, the “Tumor size (width * length)” value ([2]; 2A3 (200 ug/mouse)+SYN-115 (100 mg/kg) QD, Day 0) is reported as 19.38 mm^2 and 14.96 mm^2 and 20 mm^2 and 24.38 mm^2 and 13.26 mm^2 and 18.9 mm^2 and the “Tumor size (width * length)” value ([2]; 2A3 (200 ug/mouse)+SYN-115 (100 mg/kg) QD, Day 31) is reported as 73.1 mm^2. For the same molecule, the “Tumor size (width * length)” value ([2]; 2A3 (200 ug/mouse)+SYN-115 (100 mg/kg) QD, Day 34) was 74.82 mm^2, the “Tumor size (width * length)” value ([2]; 2A3 (200 ug/mouse)+SYN-115 (100 mg/kg) QD, Day 39) was 86.45 mm^2 and the “Tumor size (width * length)” value ([2]; 2A3 (200 ug/mouse)+SYN-115 (100 mg/kg) QD, Day 42) was 129.87 mm^2. For the same molecule, the “Raw Tumor Measurements” value ([2]; Anti-PD-1 (200 ug)+SYN-115 (30 mg/kg) BID, Day 0) was 12.6 and 15.54 and 22 and 16.38 and 22.68 and 18.36, the “Raw Tumor Measurements” value ([2]; Anti-PD-1 (200 ug)+SYN-115 (30 mg/kg) BID, Day 17) was 44.08 and 44.22 and 73.92 and 38.86 and 63.24 and 66.64 and the “Raw Tumor Measurements” value ([2]; Anti-PD-1 (200 ug)+SYN-115 (30 mg/kg) BID, Day 31) was 111.28 and 64.74. The “Raw Tumor Measurements” value ([2]; Anti-PD-1 (200 ug)+SYN-115 (30 mg/kg) BID, Day 34) was 73.1, the “Raw Tumor Measurements” value ([2]; Anti-PD-1 (200 ug)+SYN-115 (30 mg/kg) BID, Day 39) was 69.6 and the “Raw Tumor Measurements” value ([2]; Anti-PD-1 (200 ug)+SYN-115 (30 mg/kg) BID, Day 42) was 99.51. For the same molecule, the “Raw Tumor Measurements” value ([2]; Anti-PD-1 (200 ug)+SYN-115 (30 mg/kg) BID, Day 44) was 114.33, the “Tumor size (width * length)” value ([2]; Anti-PD-1 (200 ug)+SYN-115 (30 mg/kg) QD, Day 28) was 58.5 mm^2 and 63.99 mm^2 and 113.1 mm^2 and the “Tumor size (width * length)” value ([2]; Anti-PD-1 (200 ug)+SYN-115 (30 mg/kg) QD, Day 31) was 57.76 mm^2 and 74.82 mm^2. The “Tumor size (width * length)” value ([2]; Anti-PD-1 (200 ug)+SYN-115 (30 mg/kg) QD, Day 34) was 72.8 mm^2 and 93.06 mm^2, the “Tumor size (width * length)” value ([2]; Anti-PD-1 (200 ug)+SYN-115 (30 mg/kg) QD, Day 39) was 83.42 mm^2 and 127 mm^2 and the “Tumor size (width * length)” value ([2]; Anti-PD-1 (200 ug)+SYN-115 (30 mg/kg) QD, Day 42) was 127.53 mm^2. The “Raw Tumor Measurements” value ([2]; Anti-PD-1 (200 ug)+SYN-115 (100 mg/kg) BID, Day 0) was 16.28 and 15.96 and 20.46 and 16.8 and 24.12 and 12.24, the “Raw Tumor Measurements” value ([2]; Anti-PD-1 (200 ug)+SYN-115 (100 mg/kg) BID, Day 22) was 49.92 and 83.7 and 67.45 and 51.48 and 75.64 and 82.39 and the “Raw Tumor Measurements” value ([2]; Anti-PD-1 (200 ug)+SYN-115 (100 mg/kg) BID, Day 28) was 66.96 and 98.79 and 88.4 and 132.3 and 118.34. For the same molecule, the “Raw Tumor Measurements” value ([2]; Anti-PD-1 (200 ug)+SYN-115 (100 mg/kg) BID, Day 31) was 79.38 and 102.08 and 109.44, the “Raw Tumor Measurements” value ([2]; Anti-PD-1 (200 ug)+SYN-115 (100 mg/kg) BID, Day 34) was 99.36 and the “Raw Tumor Measurements” value ([2]; Anti-PD-1 (200 ug)+SYN-115 (100 mg/kg) BID, Day 39) was 103.55. For the same molecule, the “Raw Tumor Measurements” value ([2]; Anti-PD-1 (200 ug)+SYN-115 (100 mg/kg) QD, Day 0) was 14.82 and 14.76 and 15.17 and 15.12 and 23.78, the “Raw Tumor Measurements” value ([2]; Anti-PD-1 (200 ug)+SYN-115 (100 mg/kg) QD, Day 9) was 29.07 and 25 and 29.68 and 26 and 34.78 and 29.25 and the “Raw Tumor Measurements” value ([2]; Anti-PD-1 (200 ug)+SYN-115 (100 mg/kg) QD, Day 13) was 32.45 and 39.33 and 38.19 and 25.48 and 40.7 and 33.5. The “Raw Tumor Measurements” value ([2]; Anti-PD-1 (200 ug)+SYN-115 (100 mg/kg) QD, Day 15) was 39.33 and 42 and 44.2 and 32.86 and 50.74 and 25.85, the “Raw Tumor Measurements” value ([2]; Anti-PD-1 (200 ug)+SYN-115 (100 mg/kg) QD, Day 17) was 39.53 and 44.4 and 48 and 31.35 and 52.92 and 44.73 and the “Raw Tumor Measurements” value ([2]; Anti-PD-1 (200 ug)+SYN-115 (100 mg/kg) QD, Day 20) was 48.28 and 61.56 and 66.6 and 48.99 and 61.2 and 51.2. The “Raw Tumor Measurements” value ([2]; Anti-PD-1 (200 ug)+SYN-115 (100 mg/kg) QD, Day 24) was 51.83 and 72.98 and 86.92 and 53.96 and 85.05 and 46.8, the “Raw Tumor Measurements” value ([2]; Anti-PD-1 (200 ug)+SYN-115 (100 mg/kg) QD, Day 28) was 55.2 and 90.09 and 97.9 and 77.44 and 95.04 and 77.19 and the “Raw Tumor Measurements” value ([2]; Anti-PD-1 (200 ug)+SYN-115 (100 mg/kg) QD, Day 31) was 74.82 and 128.76 and 81.7 and 101.37 and 79.9. The “Raw Tumor Measurements” value ([2]; Anti-PD-1 (200 ug)+SYN-115 (100 mg/kg) QD, Day 34) was 79.05 and 95.06 and 81.32, the “Raw Tumor Measurements” value ([2]; Anti-PD-1 (200 ug)+SYN-115 (100 mg/kg) QD, Day 39) was 81.9 and 104.86 and 82.95 and the “Raw Tumor Measurements” value ([2]; Anti-PD-1 (200 ug)+SYN-115 (100 mg/kg) QD, Day 42) was 127.33 and 132.24.
